Measurements: ChEMBL document CHEMBL1201862, “PubChem BioAssay data set” (2004)
Active and inactive are the calls of the source.

What was measured:
[1] = A cytotoxicity screen of small molecule inhibitors of the PhoP region in Salmonella typhi identified in the primary screen. [Related pubchem assays: 1850, 1864, 1985 ]; format: functional
Large T antigen = Large T antigen (Simian virus 40, UniProt P03070); format: functional, Betapolyomavirus macacae;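 note: Confirmatory-stage PubChem screen for compounds that inhibit SV40 T antigen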
Chain of Large T antigen (P03070 whole entry): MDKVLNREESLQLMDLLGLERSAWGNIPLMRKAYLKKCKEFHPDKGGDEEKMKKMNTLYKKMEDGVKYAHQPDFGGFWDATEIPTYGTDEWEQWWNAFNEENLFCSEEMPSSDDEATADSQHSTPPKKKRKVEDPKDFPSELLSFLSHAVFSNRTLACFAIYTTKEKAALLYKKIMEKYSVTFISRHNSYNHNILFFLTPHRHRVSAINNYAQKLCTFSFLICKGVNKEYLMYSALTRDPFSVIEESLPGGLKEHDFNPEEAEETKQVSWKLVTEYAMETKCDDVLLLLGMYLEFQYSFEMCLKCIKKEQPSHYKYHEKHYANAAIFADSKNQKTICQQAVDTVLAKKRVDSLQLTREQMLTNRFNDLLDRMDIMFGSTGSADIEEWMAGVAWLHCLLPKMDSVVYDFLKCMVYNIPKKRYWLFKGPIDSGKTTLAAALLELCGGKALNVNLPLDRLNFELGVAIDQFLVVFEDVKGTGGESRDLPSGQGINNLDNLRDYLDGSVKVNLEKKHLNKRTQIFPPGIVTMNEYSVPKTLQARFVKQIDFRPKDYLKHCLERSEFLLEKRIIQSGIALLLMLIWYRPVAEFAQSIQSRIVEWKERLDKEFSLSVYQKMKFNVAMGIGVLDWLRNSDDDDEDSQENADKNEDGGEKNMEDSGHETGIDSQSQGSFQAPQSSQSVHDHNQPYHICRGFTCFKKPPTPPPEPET

[2] = molecular target: T1, DNA repair and recombination protein RAD54-like (Homo sapiens, UniProt Q92698); assay: inhibitors of human RAD54 branch migration, confirmation, biochemical, fluorescence, cherry-picked samples, dose series (AID 651657); format: functional
T1 sequence (Q92698 whole entry): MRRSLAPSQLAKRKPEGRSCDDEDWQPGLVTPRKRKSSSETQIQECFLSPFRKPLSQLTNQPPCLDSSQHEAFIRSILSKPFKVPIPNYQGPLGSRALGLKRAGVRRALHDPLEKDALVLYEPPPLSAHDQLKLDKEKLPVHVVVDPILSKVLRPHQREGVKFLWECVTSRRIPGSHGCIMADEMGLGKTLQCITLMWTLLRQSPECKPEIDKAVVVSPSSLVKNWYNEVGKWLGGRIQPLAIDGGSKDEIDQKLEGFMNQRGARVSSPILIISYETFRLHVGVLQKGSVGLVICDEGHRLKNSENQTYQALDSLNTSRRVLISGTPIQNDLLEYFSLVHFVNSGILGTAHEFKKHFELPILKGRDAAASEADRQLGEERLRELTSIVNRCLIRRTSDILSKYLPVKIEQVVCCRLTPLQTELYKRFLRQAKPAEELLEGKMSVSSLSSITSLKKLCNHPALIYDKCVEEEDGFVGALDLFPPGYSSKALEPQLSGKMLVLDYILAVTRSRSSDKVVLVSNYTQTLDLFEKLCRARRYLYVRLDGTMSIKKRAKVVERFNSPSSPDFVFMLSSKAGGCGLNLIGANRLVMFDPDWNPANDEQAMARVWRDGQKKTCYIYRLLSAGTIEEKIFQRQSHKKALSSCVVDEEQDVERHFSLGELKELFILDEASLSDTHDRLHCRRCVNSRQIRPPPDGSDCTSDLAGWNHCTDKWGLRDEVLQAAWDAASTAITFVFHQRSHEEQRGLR

[3] = THP-1 cell cytotoxicity, dose response, cytotoxicity control for non-replicating M. tuberculosis project (AID 489025); format: functional
cells [4] = format: functional
cells [5] = format: functional, cell-based
cells [6] = format: functional, cell-based; remark: listed apart in the source
INS1 = assay: beta cell apoptosis inhibitors, cytokine rescue, dose response, luminescence, retest (AID 449756); format: functional, cell-based; settings: Rattus norvegicus;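 note: cell death triggered by IL-1 beta plus TNF-alpha plus IFN-gamma mixture; protective hits raise ATP signal compared with cytokine alone wells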
[7] = molecular target: Heat shock protein HSP 90-alpha (Homo sapiens, UniProt P07900); format: functional, organism-based
[8] = growth suppression of beta-catenin-knockout colon cells, dose response, cell-based, HCT116, human colon tumor (AID 1045); format: functional;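 note: HCT116 colon tumor cells with beta catenin knocked out; cells exposed to compound for 60 hours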
[9] = growth suppression of PTEN-null colon cells, dose response, cell-based, HCT116 PTEN knockout (AID 1047); format: functional;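 note: HCT116 colon tumor cells with PTEN knocked out; cells exposed to compound for 60 hours before readout; potency for loss of cell viability measured by luminescence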
HEK293 = assay: inhibitors of LMP1-driven NF-kB reporter, dose response, cell-based, HEK293, luciferase, cherry-pick (AID 588343); format: functional; settings: Homo sapiens
[10] = Luminescence Cell-Based Dose Response HTS to Identify Inhibitors of 5'UTR Stem-Loop Driven Prion Protein mRNA Translation in H4 Neuroglioblastoma Cells. [Related pubchem assays: 1827 (Project Summary), 1813 (Primary HTS)]; format: functional
[11] = HEp-2 cell cytotoxicity, dose response, cytotoxicity control for RSV inhibitor project, HTS (AID 2410); format: functional; settings: human respiratory syncytial virus
[12] = inhibitors of firefly luciferase expression or activity, dose response, H4 neuroglioma cells, luminescence (AID 1990); format: functional, cell-based
[13] = inhibitors of SNCA 5'UTR-driven reporter translation, confirmation, H4 neuroglioma cells, luminescence (AID 1988); format: functional, cell-based
cells [14] = assay: cells
[15] = molecular target: T2, RNA-binding protein pos-1 (Caenorhabditis elegans, UniProt G5EF15); assay: inhibitors of POS-1/mex-3 RNA binding, dose response, biochemical, fluorescence polarization (AID 1964);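 note: purified POS-1 fused to maltose binding protein made in E. coli; potency of compounds blocking POS-1 binding to fluorescent RNA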
T2 sequence (G5EF15 whole entry): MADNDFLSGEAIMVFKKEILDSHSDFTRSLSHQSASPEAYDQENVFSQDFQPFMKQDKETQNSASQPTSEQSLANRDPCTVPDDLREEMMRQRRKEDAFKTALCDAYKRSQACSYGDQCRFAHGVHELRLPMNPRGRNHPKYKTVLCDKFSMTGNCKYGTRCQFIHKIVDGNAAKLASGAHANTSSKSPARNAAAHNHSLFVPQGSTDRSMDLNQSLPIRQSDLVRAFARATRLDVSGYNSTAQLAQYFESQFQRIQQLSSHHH

[16] = NIH-3T3 fibroblast cytotoxicity, dose response, cytotoxicity control, cell-based, fluorescence, Alamar Blue, secondary assay (AID 2327); format: functional;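 note: NIH-3T3 mouse fibroblasts cultured with fluconazole at 8 µg/mL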
[17] = molecular target: T3, Heat shock factor protein 1 (Mus musculus, UniProt P38532); assay: HSF1 potentiators in luciferase reporter cells, confirmation, cell-based, NIH3T3, luminescence, dose retest (AID 435004); format: functional;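 note: stress induced by proteasome inhibitor MG132 added 30 min after compound; luciferase reporter driven by HSF1 response element in NIH3T3 cells; actives raise luminescence as potentiators of the MG132 stress response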
T3 sequence (P38532 whole entry): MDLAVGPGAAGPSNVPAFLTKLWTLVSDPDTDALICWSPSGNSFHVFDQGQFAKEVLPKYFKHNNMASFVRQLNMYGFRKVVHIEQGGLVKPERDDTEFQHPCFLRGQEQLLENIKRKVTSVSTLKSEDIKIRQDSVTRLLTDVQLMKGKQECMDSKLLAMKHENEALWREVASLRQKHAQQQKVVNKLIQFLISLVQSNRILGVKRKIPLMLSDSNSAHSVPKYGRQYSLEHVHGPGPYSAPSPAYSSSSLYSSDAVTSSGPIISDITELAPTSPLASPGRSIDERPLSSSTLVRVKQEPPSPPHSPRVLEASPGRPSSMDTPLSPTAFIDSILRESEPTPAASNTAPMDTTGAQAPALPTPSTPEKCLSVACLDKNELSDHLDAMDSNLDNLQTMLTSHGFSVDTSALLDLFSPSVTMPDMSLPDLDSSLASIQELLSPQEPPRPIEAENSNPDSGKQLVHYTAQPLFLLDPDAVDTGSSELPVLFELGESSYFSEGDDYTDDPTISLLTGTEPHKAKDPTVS

Protein skinhead-1 = molecular target: T4, Protein skinhead-1 (Caenorhabditis elegans, UniProt P34707); format: functional
T4 sequence (P34707 whole entry): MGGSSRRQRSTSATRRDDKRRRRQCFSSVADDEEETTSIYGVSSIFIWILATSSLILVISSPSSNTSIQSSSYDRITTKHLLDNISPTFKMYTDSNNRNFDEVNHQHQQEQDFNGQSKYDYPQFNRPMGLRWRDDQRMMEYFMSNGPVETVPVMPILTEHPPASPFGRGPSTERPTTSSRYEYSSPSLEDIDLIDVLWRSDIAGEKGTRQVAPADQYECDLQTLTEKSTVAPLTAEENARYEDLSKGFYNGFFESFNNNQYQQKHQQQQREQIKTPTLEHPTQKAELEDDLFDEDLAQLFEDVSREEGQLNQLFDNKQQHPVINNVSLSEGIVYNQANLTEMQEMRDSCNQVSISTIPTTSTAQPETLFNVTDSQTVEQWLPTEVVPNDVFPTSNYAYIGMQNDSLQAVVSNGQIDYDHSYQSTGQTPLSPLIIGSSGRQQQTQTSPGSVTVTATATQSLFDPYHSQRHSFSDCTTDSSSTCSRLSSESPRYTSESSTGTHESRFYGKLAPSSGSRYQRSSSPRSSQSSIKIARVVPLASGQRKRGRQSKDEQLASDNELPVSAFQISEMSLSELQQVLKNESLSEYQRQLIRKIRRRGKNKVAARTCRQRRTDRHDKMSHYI

Cc1nc(C)c(-c2ccc(SCc3ccccc3F)nn2)s1
EC50 [1]: > 50 µM (active)

COc1ccc(/C=C2/C(=O)N(Cc3ccco3)C(=O)N(C(C)C)C2=O)cc1
IC50 (Large T antigen): 80.6 µM (active)

O=C(N/N=C/c1cccnc1)c1ccc([N+](=O)[O-])cc1Cl
EC50 [1]: > 50 µM (active)

CCOC(=O)c1cc(-c2ccncc2)nc2c1c(C)nn2-c1ccccn1
AC50 [2]: 30.4 µM (active) | EC50 [1]: > 50 µM (active)

O=[N+]([O-])c1ccc(CNc2cccc(Cl)c2)s1
CC50 [3]: > 40 µM (active) | IC50 (cells [4]): 48.6 µM (active)

COc1ccc(S(=O)(=O)N2CCOC2CNC(=O)C(=O)NCc2ccc3c(c2)OCO3)cc1OC (stereo not given)
EC50 (cells [5]): > 350 µM (not active) | EC50 (cells [6]): > 350 µM (not active)

N#Cc1c2ccc([N+](=O)[O-])cc2[n+]([O-])n1-c1ccccc1
AC50 (INS1): 3.15 µM (active) | AC50 [7]: 2.86 µM (active)

CCCCN(CC)S(=O)(=O)c1ccc(C(=O)/N=c2\sc3cc(NC(C)=O)ccc3n2C)cc1
EC50 [8]: 10.2 µM (active) | EC50 [9]: 17.1 µM (active)

CCCCNC(=O)CCn1c(=O)c2ccccc2n(Cc2ccc(Cl)cc2)c1=O
EC50 [8]: 19.5 µM (active) | EC50 [9]: 18 µM (active)

COc1cccc(C(=O)SC2=NCCS2)c1
EC50 (cells [5]): > 350 µM (not active) | EC50 (cells [6]): 55.8 µM (active)

CN(C1CCCCC1)S(=O)(=O)c1ccc(C(=O)N2CCN(c3nc4ccccc4s3)CC2)cc1
AC50 (HEK293): 2.85 µM (active)

Cc1cccc(NS(=O)(=O)c2ccc(C)c(C(=O)OCC(=O)Nc3cc(C)on3)c2)c1
EC50 [10]: > 120 µM (not active) | CC50 [11]: 23.9 µM (active) | EC50 [12]: 41.1 µM (active) | EC50 [13]: 28.1 µM (active) | IC50 (cells [14]): 30.8 µM (active)

O=C(NNC(=O)c1cc(Cl)ccc1[N+](=O)[O-])c1csc(N2CCOCC2)n1
EC50 [15]: > 300 µM (inconclusive)

O=c1cc(CN2CCN(Cc3ccccc3)CC2)c2ccc(O)c(O)c2o1
IC50 (Large T antigen): 4.91 µM (active) | EC50 [16]: > 160 µM (inactive)

Cc1ccc(S/C=C\C(=O)c2ccccc2)cc1
EC50 [17]: 8.81 µM (active) | EC50 [8]: 33.1 µM (active) | IC50 (Protein skinhead-1): 32.9 µM (active) | EC50 [9]: 98.5 µM (active)
